For 37 molecules, LC retention time results are on record in the RepoRT retention time repository.

Structures are written as SMILES.

The series is described as follows: HILIC, Waters Atlantis Premier BEH Z-HILIC, 100 × 2.1 mm, 1.7 µm, 40 °C, 0.15 mL/min, estimated dead time 1.5 min; A: water + 20 mM ammonium carbonate + 5 µM medronic acid; B: 10% water + 90% acetonitrile + 2 mM ammonium carbonate + 0.5 µM medronic acid; gradient (min/%B) 0/90 18/55 18.1/20 21.5/20 22/90 23.5/90 25.5/90. Conditions: stereoisomer not certain.

On to `Nc1ncnc2c1ncn2C1OC(CO)C(O)C1O` (configuration not stated) [Adenosine], for which the LC retention time is 3.18 min.

Regarding `O=C(CO)C(O)C(O)C(O)COP(=O)(O)O` (configuration not stated) [Fructose 6-phosphate], the LC retention time was 10.8 min.

On to `O=C(O)CCCCC1SCC2NC(=O)NC21` (configuration not stated) [Biotin], for which the LC retention time was 4.58 min.

Turning to `Nc1ncnc2c1ncn2C1OC(COP(=O)(O)O)C(O)C1O` (configuration not stated) [AMP], the LC retention time is 9.07 min.

Consider `Nc1ncnc2c1ncn2C1OC(COP(=O)(O)OP(=O)(O)O)C(O)C1O` (configuration not stated) [ADP], for which the LC retention time is 11.1 min.

Take `NC(=O)c1ccc[n+](C2OC(COP(=O)(O)OP(=O)(O)OCC3OC(n4cnc5c(N)ncnc54)C(OP(=O)(O)O)C3O)C(O)C2O)c1` (configuration not stated) [NADP]: the LC retention time was 13.1 min.

As for `O=C(O)CCC(O)C(=O)O` (configuration not stated) [2-hydroxy glutaric acid], the LC retention time was 9.22 min.

For `CC(C)CC(N)C(=O)O` (configuration not stated) [Leucine], the LC retention time was 6.22 min.

As to `NC(CCC(=O)O)C(=O)O` (configuration not stated) [Glutamic acid], the LC retention time is 9.23 min.

Regarding `O=C(O)CC(O)(CC(=O)O)C(=O)O` [Citric acid], the LC retention time is 12.8 min.

`O=C(O)CCC(=O)O` [Succinic Acid]: the LC retention time is 9.23 min.

On to `NC(=O)C1=CN(C2OC(COP(=O)(O)OP(=O)(O)OCC3OC(n4cnc5c(N)ncnc54)C(O)C3O)C(O)C2O)C=CC1` (configuration not stated) [NADH], for which the LC retention time is 8.31 min.

Regarding `O=P(O)(O)OCC1OC(O)C(O)C(O)C1O` (configuration not stated) [Glucose-6-phosphate], the LC retention time was 11.7 min.

With `O=P(O)(O)OCC1OC(O)(COP(=O)(O)O)C(O)C1O` (configuration not stated) [Fructose-1,6-bisphosphate], the LC retention time is 14.8 min.

For the molecule `O=P(O)(O)OCC(O)CO` (configuration not stated) [Glycerol-3-phosphate], the LC retention time is 9.92 min.

For the molecule `CC(=O)SCCNC(=O)CCNC(=O)C(O)C(C)(C)COP(=O)(O)OP(=O)(O)OCC1OC(n2cnc3c(N)ncnc32)C(O)C1OP(=O)(O)O` (configuration not stated) [Acetyl-CoA], the LC retention time was 10.1 min.

As to `NCCCCC(N)C(=O)O` (configuration not stated) [Lysine], the LC retention time is 18.6 min.

Regarding `Nc1ncnc2c1ncn2C1OC(COP(=O)(O)OP(=O)(O)OP(=O)(O)O)C(O)C1O` (configuration not stated) [ATP], the LC retention time was 12.9 min.

For the molecule `O=C(CO)COP(=O)(O)O` [Triose phosphate], the LC retention time is 9.78 min.

As to `NC(=O)C1=CN(C2OC(COP(=O)(O)OP(=O)(O)OCC3OC(n4cnc5c(N)ncnc54)C(OP(=O)(O)O)C3O)C(O)C2O)C=CC1` (configuration not stated) [NADPH], the LC retention time is 13.3 min.

For `CCC(C)C(N)C(=O)O` (configuration not stated) [Isoleucine], the LC retention time is 6.5 min.

In the case of `CC(O)C(=O)O` (configuration not stated) [Lactic Acid], the LC retention time is 3.15 min.

For the molecule `O=C(O)CCC(=O)C(=O)O` [2-Oxoglutaric acid], the LC retention time was 8.68 min.

Regarding `O=C(O)CC(C(=O)O)C(O)C(=O)O` (configuration not stated) [Isocitric acid], the LC retention time is 12.8 min.

For the molecule `CCC(=O)OC(CC(=O)[O-])C[N+](C)(C)C` (configuration not stated) [carnitine-C3], the LC retention time was 6.42 min.

As for `Cc1cc2nc3c(=O)[nH]c(=O)nc-3n(CC(O)C(O)C(O)COP(=O)(O)OP(=O)(O)OCC3OC(n4cnc5c(N)ncnc54)C(O)C3O)c2cc1C` (configuration not stated) [FAD], the LC retention time is 7.03 min.

`O=C1CC(C(=O)O)NC(=O)N1` (configuration not stated) [dihydroorotic acid]: the LC retention time is 3.92 min.

`NC(=O)c1ccc[n+](C2OC(COP(=O)(O)OP(=O)(O)OCC3OC(n4cnc5c(N)ncnc54)C(O)C3O)C(O)C2O)c1` (configuration not stated) [NAD]: the LC retention time was 9.49 min.

As for `OCC1OC(O)C(O)C(O)C1O` (configuration not stated) [Hexose], the LC retention time is 7.41 min.

In the case of `O=C(O)C(CO)OP(=O)(O)O` (configuration not stated) [Phosphoglyceric acid A], the LC retention time was 12.7 min.

Turning to `C=C(OP(=O)(O)O)C(=O)O` [PEP], the LC retention time is 12.9 min.

Regarding `CC(=O)NC1C(OP(=O)(O)OP(=O)(O)OCC2OC(n3ccc(=O)[nH]c3=O)C(O)C2O)OC(CO)C(O)C1O` (configuration not stated) [UDP-GlcNAc], the LC retention time was 9.52 min.

On to `NC(N)=NCCCC(N)C(=O)O` (configuration not stated) [Arginine], for which the LC retention time is 18.4 min.

Consider `C[N+](C)(C)CC(O)CC(=O)[O-]` (configuration not stated) [Carnitine], for which the LC retention time is 9.89 min.

`Nc1nc2c(ncn2C2OC(COP(=O)(O)OP(=O)(O)OP(=O)(O)O)C(O)C2O)c(=O)[nH]1` (configuration not stated) [GTP]: the LC retention time was 15.3 min.

`NC(=O)CCC(N)C(=O)O` (configuration not stated) [Glutamine]: the LC retention time is 10.3 min.

In the case of `CC(C)(COP(=O)(O)OP(=O)(O)OCC1OC(n2cnc3c(N)ncnc32)C(O)C1OP(=O)(O)O)C(O)C(=O)NCCC(=O)NCCS` (configuration not stated) [CoenzymeA], the LC retention time is 11.8 min.
